From ChEMBL document CHEMBL4765487, “From a Designer Drug to the Discovery of Selective Cannabinoid Type 2 Receptor Agonists with Favorable Pharmacokinetic Profiles for the Treatment of Systemic Sclerosis” (J Med Chem, 2021) come the findings set out here.

Common to all, as to type: functional, cell-based
Assay [1] concerns the target T1, Cannabinoid receptor 1 (Homo sapiens, UniProt P21554). Description: Agonist activity at human CB1 receptor expressing CHO cells co-expressing Galpha16 by calcium mobilization assay. On the technique in general: Calcium assays in cells follow changes in intracellular calcium, usually with a dye or a luminescent sensor.
Assay [2] concerns the target T2, Cannabinoid receptor 2 (Homo sapiens, UniProt P34972). As to the kind of experiment: Agonist activity at human CB2 receptor expressing CHO cells co-expressing Galpha16 by calcium mobilization assay.
Assay [3] has as its target T2, Cannabinoid receptor 2. As to the kind of experiment: Agonist activity at human CB2 receptor expressing CHO cells co-expressing Galpha16 by calcium mobilization assay relative to CP55940.
Assay [4] deals with T1, Cannabinoid receptor 1. As to the kind of experiment: Agonist activity at human CB1 receptor expressing CHO cells co-expressing Galpha16 by calcium mobilization assay relative to CP55940.
The target of assay [5] is T2, Cannabinoid receptor 2. Description: Antagonist activity at human CB2 receptor expressing CHO cells co-expressing Galpha16 assessed as inhibition of CP55940-induced calcium mobilization pre-incubated for 15 mins before CP55940 addition. The conditions noted are these: cho.

The structures appear in SMILES notation.

T2 sequence (P34972 whole entry): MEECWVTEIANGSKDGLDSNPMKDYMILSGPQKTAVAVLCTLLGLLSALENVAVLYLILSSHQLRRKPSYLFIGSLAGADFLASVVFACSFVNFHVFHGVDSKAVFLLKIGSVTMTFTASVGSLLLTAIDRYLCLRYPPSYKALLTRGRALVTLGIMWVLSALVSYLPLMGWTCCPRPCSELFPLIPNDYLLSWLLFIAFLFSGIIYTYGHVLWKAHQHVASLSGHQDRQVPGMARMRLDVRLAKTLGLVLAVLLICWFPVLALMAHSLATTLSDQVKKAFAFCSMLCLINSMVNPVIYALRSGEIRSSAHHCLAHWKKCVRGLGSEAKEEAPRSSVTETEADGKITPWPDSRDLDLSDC
T1 sequence (P21554 whole entry): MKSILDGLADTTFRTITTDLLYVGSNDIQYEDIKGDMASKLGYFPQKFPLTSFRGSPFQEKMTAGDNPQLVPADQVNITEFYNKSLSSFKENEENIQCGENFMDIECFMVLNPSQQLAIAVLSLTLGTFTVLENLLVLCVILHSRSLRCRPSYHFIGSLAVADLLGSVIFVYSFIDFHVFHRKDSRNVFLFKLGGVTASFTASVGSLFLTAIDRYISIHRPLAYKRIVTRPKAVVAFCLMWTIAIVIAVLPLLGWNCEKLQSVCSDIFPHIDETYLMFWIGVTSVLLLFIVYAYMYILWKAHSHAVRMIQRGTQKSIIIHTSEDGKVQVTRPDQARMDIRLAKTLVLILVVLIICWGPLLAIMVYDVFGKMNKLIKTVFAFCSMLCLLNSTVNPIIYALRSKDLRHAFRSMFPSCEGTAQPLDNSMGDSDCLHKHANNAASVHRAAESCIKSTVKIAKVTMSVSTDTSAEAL

By EC50 is commonly meant the concentration that produces a half-maximal response. Turning to `CCCCCn1nc(C(C)(C)C)cc1C(=O)NC12CC3CC(CC(C3)C1)C2`, the EC50 at Cannabinoid receptor 1 [1] and on Cannabinoid receptor 2 [2] was 100 µM throughout.
In general, Emax refers to the greatest response seen or fitted, relative to the assay's reference. Regarding `CCCn1nc(C(=O)NC(C)(C)CO)cc1C(C)(C)C`, the concentration giving a half-maximal response (EC50) at Cannabinoid receptor 1 [1] was 100 µM; on Cannabinoid receptor 2 [2], 0.21 µM. Besides, the Emax on Cannabinoid receptor 2 [3] (filed as agonist) is 100%.
As for `CCCCCn1nc(C(=O)NC23CC4CC(CC(O)(C4)C2)C3)cc1C(C)(C)C`, the concentration giving a half-maximal response (EC50) at Cannabinoid receptor 1 [1] worked out at 0.004 µM; on Cannabinoid receptor 2 [2], 100 µM. The Emax on Cannabinoid receptor 1 [4] (filed as agonist) was determined as 100%.
With `Cc1ccc(-n2nc(C(=O)NC(C)(C)CO)cc2C(C)(C)C)cc1`, the concentration giving a half-maximal response (EC50) on Cannabinoid receptor 1 [1] came to 100 µM; at Cannabinoid receptor 2 [2] it was 0.197 µM. Moreover, the Emax on Cannabinoid receptor 2 [3] (filed as agonist) amounted to 40%.
Take `CC(C)(CO)NC(=O)c1cc(C(C)(C)C)n(-c2ccc(C(F)(F)F)cc2)n1`: the concentration for a half-maximal effect (EC50) on Cannabinoid receptor 1 [1] and on Cannabinoid receptor 2 [2] was 100 µM each time.
As for `CCCCCn1nc(C(C)(C)C)cc1C(=O)NC(C)(C)C`, the results for the EC50 on Cannabinoid receptor 1 [1] and at Cannabinoid receptor 2 [2] were 100 µM and 0.301 µM, respectively. Also, the maximal response (Emax) on Cannabinoid receptor 2 [3] (filed as agonist) amounted to 80%.
For `CCCCCn1nc(C(=O)NC(C)(C)CO)cc1C(F)(F)F`, the 50% effective concentration (EC50) is 0.187 µM on Cannabinoid receptor 1 [1] and 0.0538 µM at Cannabinoid receptor 2 [2]. Also, the Emax on Cannabinoid receptor 2 [3] (filed as agonist) and on Cannabinoid receptor 1 [4] (filed as agonist) was 80% in each case. In addition, the IC50 result at Cannabinoid receptor 2 [5] was “Not Active”.
For the molecule `CC(C)(CO)NC(=O)c1cc(C(C)(C)C)n(CCCCCF)n1`, the 50% effective concentration (EC50) was found to be 0.043 µM on Cannabinoid receptor 1 [1] and 0.0364 µM at Cannabinoid receptor 2 [2]. Also, the maximal effect (Emax) amounted to 70% at Cannabinoid receptor 2 [3] (filed as agonist) and 90% on Cannabinoid receptor 1 [4] (filed as agonist).
`CC(C)(CO)NC(=O)c1cc(C(C)(C)C)n(-c2ncc(C(F)(F)F)cc2Cl)n1`: the half-maximal effective concentration (EC50) at Cannabinoid receptor 1 [1] and on Cannabinoid receptor 2 [2] was 100 µM throughout.
As for `CCCCCn1nc(C(=O)NC(C)(C)CO)c(Cl)c1C(C)(C)C`, the EC50 is 0.0339 µM on Cannabinoid receptor 1 [1] and 0.0034 µM on Cannabinoid receptor 2 [2]. In addition, the Emax is 100% at Cannabinoid receptor 2 [3] (filed as agonist) and 50% at Cannabinoid receptor 1 [4] (filed as agonist). Besides, the IC50 result at Cannabinoid receptor 2 [5] was “Not Active”.
Consider `CC(C)(CO)NC(=O)c1cc(C(C)(C)C)n(-c2ccccc2)n1`, for which the concentration for a half-maximal effect (EC50) at Cannabinoid receptor 1 [1] and on Cannabinoid receptor 2 [2] was 100 µM each time.
As to `CC(C)(CO)NC(=O)c1cc(C(C)(C)C)n(-c2ccc(F)cc2)n1`, the concentration giving a half-maximal response (EC50) came out at 100 µM at Cannabinoid receptor 1 [1] and 0.685 µM at Cannabinoid receptor 2 [2]. Besides, the Emax on Cannabinoid receptor 2 [3] (filed as agonist) was determined as 82%.
Turning to `CCCCCn1nc(C(=O)N[C@H](C(=O)OC)C(C)C)cc1C(C)(C)C`, the figures for the concentration for a half-maximal effect (EC50) at Cannabinoid receptor 1 [1] and on Cannabinoid receptor 2 [2] were 0.0266 µM and 0.0072 µM, respectively. Besides, the Emax on Cannabinoid receptor 2 [3] (filed as agonist) stood at 100%; on Cannabinoid receptor 1 [4] (filed as agonist), 70%.
Consider `CCCCCn1nc(C(=O)NC2CCCCC2)cc1C(C)(C)C`, for which the EC50 on Cannabinoid receptor 1 [1] turned out to be 0.104 µM; at Cannabinoid receptor 2 [2], 0.046 µM. Further, the maximal response (Emax) came out at 80% on Cannabinoid receptor 2 [3] (filed as agonist) and 50% on Cannabinoid receptor 1 [4] (filed as agonist).
On to `CCCCCn1nc(C(=O)NC(C)(C)C)cc1C(C)(C)C`, for which the EC50 was determined as 0.0072 µM on Cannabinoid receptor 1 [1] and 0.012 µM at Cannabinoid receptor 2 [2]. Moreover, the maximal effect (Emax) on Cannabinoid receptor 2 [3] (filed as agonist) and at Cannabinoid receptor 1 [4] (filed as agonist) was 100% throughout.
Regarding `CCCCCn1nc(C(=O)Nc2ccncc2)cc1C(C)(C)C`, the results for the EC50 at Cannabinoid receptor 1 [1] and on Cannabinoid receptor 2 [2] were 0.221 µM and 0.118 µM, respectively. Also, the figures for the Emax on Cannabinoid receptor 2 [3] (filed as agonist) and at Cannabinoid receptor 1 [4] were 60% and 30%, respectively.
Regarding `CCCCCn1nc(C(C)(C)C)cc1C(=O)NC(C)(C)CO`, the EC50 at Cannabinoid receptor 1 [1] was determined as 100 µM; on Cannabinoid receptor 2 [2], 0.319 µM. Besides, the maximum response (Emax) on Cannabinoid receptor 2 [3] (filed as agonist) came to 80%.
As to `CCCCn1nc(C(=O)NC(C)(C)CO)cc1C(C)(C)C`, the EC50 was 0.101 µM on Cannabinoid receptor 1 [1] and 0.0101 µM at Cannabinoid receptor 2 [2]. Also, the maximal effect (Emax) on Cannabinoid receptor 2 [3] (filed as agonist) turned out to be 100%; at Cannabinoid receptor 1 [4] (filed as agonist) it was 90%.
For the molecule `CC(C)(CO)NC(=O)c1cc(C(C)(C)C)n(-c2ccc(F)cc2F)n1`, the EC50 at Cannabinoid receptor 1 [1] was determined as 100 µM; at Cannabinoid receptor 2 [2], 1.73 µM. For the same molecule, the Emax on Cannabinoid receptor 2 [3] (filed as agonist) was found to be 80%.
For `CC(C)(CO)NC(=O)c1cc(C(C)(C)C)n(-c2ccc(F)cn2)n1`, the EC50 was found to be 100 µM at Cannabinoid receptor 1 [1] and 0.135 µM on Cannabinoid receptor 2 [2]. Also, the Emax on Cannabinoid receptor 2 [3] (filed as agonist) came out at 100%.
As for `CCCCCCn1nc(C(=O)NC(C)(C)CO)cc1C(C)(C)C`, the EC50 was 0.047 µM on Cannabinoid receptor 1 [1] and 0.0134 µM at Cannabinoid receptor 2 [2]. Besides, the maximal effect (Emax) at Cannabinoid receptor 2 [3] (filed as agonist) and on Cannabinoid receptor 1 [4] (filed as agonist) was 100% throughout.
Consider `CCCCCn1nc(C(=O)NC23CC4CC(CC(C4)C2)C3)cc1C(C)(C)C`, for which the 50% effective concentration (EC50) at Cannabinoid receptor 1 [1] turned out to be 0.271 µM; on Cannabinoid receptor 2 [2], 0.194 µM. Moreover, the Emax on Cannabinoid receptor 2 [3] (filed as partial agonist) was found to be 58%; on Cannabinoid receptor 1 [4] (filed as partial agonist) it was 69%.
Take `CCCCCn1nc(C(=O)Nc2ccc(Cl)cc2)cc1C(C)(C)C`: the EC50 was 100 µM at Cannabinoid receptor 1 [1] and 2.35 µM at Cannabinoid receptor 2 [2]. On Cannabinoid receptor 2 [3] (filed as agonist), the maximal response (Emax) is 80%.
The matching figures for `CC(C)(CO)NC(=O)c1cc(C(C)(C)C)n(CCCF)n1`: 100 µM, 0.184 µM and 100%.
Consider `CC(C)(CO)NC(=O)c1cc(C(C)(C)C)n(-c2ncccn2)n1`, for which the EC50 at Cannabinoid receptor 1 [1] and at Cannabinoid receptor 2 [2] was 100 µM each time.
`COCCn1nc(C(=O)NC(C)(C)CO)cc1C(C)(C)C`: the concentration giving a half-maximal response (EC50) at Cannabinoid receptor 1 [1] and at Cannabinoid receptor 2 [2] was 100 µM in each case.
Regarding `CC(C)(CO)NC(=O)c1cc(C(C)(C)C)n(-c2cccnc2)n1`, the half-maximal effective concentration (EC50) on Cannabinoid receptor 1 [1] and at Cannabinoid receptor 2 [2] was 100 µM each time.
Regarding `CC(C)(CO)NC(=O)c1cc(C(C)(C)C)n(CCCCF)n1`, the EC50 is 2.85 µM at Cannabinoid receptor 1 [1] and 0.0659 µM on Cannabinoid receptor 2 [2]. Moreover, the Emax on Cannabinoid receptor 2 [3] (filed as agonist) and on Cannabinoid receptor 1 [4] (filed as agonist) was 100% each time.
In the case of `CC(C)(CO)NC(=O)c1cc(C(C)(C)C)n(-c2ccc(Cl)cn2)n1`, the concentration giving a half-maximal response (EC50) on Cannabinoid receptor 1 [1] was determined as 100 µM; at Cannabinoid receptor 2 [2], 7.31 µM. The maximal effect (Emax) at Cannabinoid receptor 2 [3] (filed as agonist) is 50%.
For the molecule `CCCCCn1nc(C(=O)NC(C)(C)CO)cc1C1CCCCC1`, the EC50 on Cannabinoid receptor 1 [1] and at Cannabinoid receptor 2 [2] was 100 µM throughout. Besides, the IC50 result at Cannabinoid receptor 2 [5] is on record as “Not Active”.
In the case of `CC(C)(CO)NC(=O)c1cc(C(C)(C)C)n(-c2ccccn2)n1`, the values for the EC50 on Cannabinoid receptor 1 [1] and on Cannabinoid receptor 2 [2] were 100 µM and 3.89 µM, respectively. For the same molecule, the maximal effect (Emax) at Cannabinoid receptor 2 [3] (filed as agonist) is 80%.
Take `CCCCCn1nc(C(C)(C)C)cc1C(=O)NCc1ccc(Cl)cc1`: the concentration giving a half-maximal response (EC50) at Cannabinoid receptor 1 [1] and on Cannabinoid receptor 2 [2] was 100 µM each time.
In the case of `CCCCCn1nc(C(=O)NC(C)(C)CO)cc1C1CC1`, the EC50 at Cannabinoid receptor 1 [1] and at Cannabinoid receptor 2 [2] was 100 µM each time. Moreover, the IC50 result at Cannabinoid receptor 2 [5] is “Not Active”.
As to `CCCCCn1nc(C(C)(C)C)cc1C(=O)NC12CC3CC(CC(O)(C3)C1)C2`, the concentration giving a half-maximal response (EC50) on Cannabinoid receptor 1 [1] and on Cannabinoid receptor 2 [2] was 100 µM throughout.
`COc1ccc(-n2nc(C(=O)NC(C)(C)CO)cc2C(C)(C)C)cc1`: the EC50 at Cannabinoid receptor 1 [1] and at Cannabinoid receptor 2 [2] was 100 µM in each case.
For the molecule `CC(C)(CO)NC(=O)c1cc(C(C)(C)C)n(-c2ccc(OC(F)(F)F)cc2)n1`, the concentration for a half-maximal effect (EC50) at Cannabinoid receptor 1 [1] and on Cannabinoid receptor 2 [2] was 100 µM throughout.
Take `CC(C)(CO)NC(=O)c1cc(C(C)(C)C)n(CC2CC2)n1`: the figures for the concentration giving a half-maximal response (EC50) on Cannabinoid receptor 1 [1] and at Cannabinoid receptor 2 [2] were 4.9 µM and 0.103 µM, respectively. In addition, the figures for the Emax on Cannabinoid receptor 2 [3] (filed as agonist) and on Cannabinoid receptor 1 [4] were 100% and 20%, respectively.
`CCCCCn1nc(C(C)(C)C)cc1C(=O)Nc1ccc(Cl)cc1`: the EC50 on Cannabinoid receptor 1 [1] and at Cannabinoid receptor 2 [2] was 100 µM in each case.
Regarding `CC(C)(CO)NC(=O)c1cc(C(C)(C)C)n(-c2ccc(Cl)cc2)n1`, the EC50 at Cannabinoid receptor 1 [1] came out at 100 µM; on Cannabinoid receptor 2 [2], 0.204 µM. In addition, the Emax on Cannabinoid receptor 2 [3] (filed as agonist) amounted to 100%.
For the molecule `CCCCCn1nc(C(=O)N[C@@H](C(=O)OC)C(C)(C)C)cc1C(C)(C)C`, the EC50 at Cannabinoid receptor 1 [1] amounted to 0.0043 µM; at Cannabinoid receptor 2 [2], 0.0261 µM. Further, the maximum response (Emax) at Cannabinoid receptor 2 [3] (filed as agonist) and on Cannabinoid receptor 1 [4] (filed as agonist) was 100% in each case.
With `CCCCCn1nc(C(=O)NCc2ccc(Cl)cc2)cc1C(C)(C)C`, the concentration for a half-maximal effect (EC50) on Cannabinoid receptor 1 [1] and on Cannabinoid receptor 2 [2] was 100 µM in each case.
